From patent US20030153009A1, “Method for influencing kinase activity with AG879” (priority 2002, published 2003)

How the values were obtained:
ETK [1] = target: T1, ETK (Mus musculus, UniProt P97504); test: Tyrosine phosphorylation of ETK in AG879-treated RAS cells (immunoprecipitation); format: cell-based; design: endogenous in cells; host or cells: RAS cells (v-Ha-RAS transformed NIH 3T3 fibroblasts); details: 1 hour
T1 sequence (P97504 1-651): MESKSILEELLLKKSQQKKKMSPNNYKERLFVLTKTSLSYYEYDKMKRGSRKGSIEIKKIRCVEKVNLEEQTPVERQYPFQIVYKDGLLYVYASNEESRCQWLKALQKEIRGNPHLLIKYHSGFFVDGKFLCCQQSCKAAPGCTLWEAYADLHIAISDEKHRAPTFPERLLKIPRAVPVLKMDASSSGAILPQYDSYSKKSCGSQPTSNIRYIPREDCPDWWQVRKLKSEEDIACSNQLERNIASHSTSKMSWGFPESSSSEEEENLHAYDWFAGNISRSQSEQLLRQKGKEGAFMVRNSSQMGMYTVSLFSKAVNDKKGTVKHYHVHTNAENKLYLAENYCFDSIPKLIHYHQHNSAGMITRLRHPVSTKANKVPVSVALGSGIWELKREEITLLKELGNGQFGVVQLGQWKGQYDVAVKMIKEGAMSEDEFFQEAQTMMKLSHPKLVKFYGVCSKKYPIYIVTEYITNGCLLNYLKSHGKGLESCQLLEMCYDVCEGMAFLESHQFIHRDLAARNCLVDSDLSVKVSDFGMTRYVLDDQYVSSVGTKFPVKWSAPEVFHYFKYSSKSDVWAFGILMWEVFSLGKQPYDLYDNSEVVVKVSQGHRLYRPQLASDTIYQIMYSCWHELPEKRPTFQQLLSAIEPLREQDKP
Procedure: (§1) Experiments were designed to determine if AG879 affected the Tyr activity of ETK. To do so, serum starved RAS cells were treated, with varying concentrations of AG879 for 1 hour. Cell lysates were prepared using, as lysis buffer, 20 mM Tris-HCl (pH 7.5), 100 mM NaCl, 10% glycerol, 1% Nonidet P-40, 10 mM NaF, 100 μM NaVO3, 1 mM phenylmethylsulfonyl fluoride, and 100 units/ml of aprotonin. Lysates were treated either with a rabbit, anti-ETK antibody, as an anti-phospo Tyr antibody, to immunoprecipitate the enzyme, and an ETK kinase assay was performed, in accordance with Chen, et. al., Nat. Cell Biol. 3:439-444 (2001); and Bagheri-Yarmand, et. al., supra, both of which are incorporated by reference. Endogenous PAK1, associated with ETK was used as a substrate, in either the absence, or varying concentrations of AG879.

GST-PAK1 = GST-PAK1 (Homo sapiens, UniProt Q13153); test: Kinase assay with fusion protein GST-PAK1; format: biochemical; details: even at 10 μM
Procedure: In follow up experiments a fusion protein “GST-PAK1” was prepared, and tested in the same way.

ETK-PAK1 association = target: T2, ETK-PAK1 association (Mus musculus, UniProt P97504); test: ETK-PAK1 association in AG879-treated RAS cells; format: cell-based; details: 10 nM
T2 construct: RAS cells were again lysed and immunoprecipitated with an anti-ETK antibody; endogenous in cells; host or cells: RAS cells (v-Ha-RAS transformed NIH 3T3 fibroblasts)
T2 sequence (P97504 1-651): T1 sequence (P97504 1-651)
Procedure: as §1

PAK1 [2] = test: Tyr phosphorylation of PAK1 in AG879-treated RAS cells; format: cell-based; details: 10 nM
Procedure: as §1

FAK = target: T3, FAK (Mus musculus, UniProt P34152); test: Tyr phosphorylation of FAK in RAS cells (anti-FAK immunoprecipitation, blot); format: cell-based
T3 construct: RAS cells were again serum starved, lysed, and immunoprecipitated using an anti-FAK antibody; endogenous in cells; host or cells: RAS cells (v-Ha-RAS transformed NIH 3T3 fibroblasts)
Excerpt: (§2) In order to determine this, RAS cells were again serum starved, lysed, and immunoprecipitated using an anti-FAK antibody. The precipitates were then blotted, using either anti-phospo Tyr, anti-ETK, or anti-PAK1 antibodies, separately.

PAK1 [3] = test: PAK kinase assay on PAK1 immunoprecipitated from AG879-treated RAS cells; format: cell-based; details: RAS cells serum starved, AG879 0.01-10 μM for 1 hour; all concentrations tested
Procedure: RAS cells, which are NIH 3T3 fibroblasts transformed with v-Ha-RAS, were serum starved, overnight, and were then incubated with varying concentrations of AG879 (0.01-10 μM), for 1 hour. Following the hour of culture, the cells were lysed in lysis buffer (40 mM HEPES, pH 7.4, 1% Nonidet P-40, 1 mM EDTA, 100 mM NaCl, 25 mM NaF, 100 μM NaVO3, 1 MM phenylmethyl sulfonyl fluoride, and 100 units/ml aprotonin). Lysates were tested, via Bradford assay, to determine protein content, and those containing 1 mg of protein were admixed with an anti-PAK1 antibody to immunoprecipitate proteins.
Once the proteins were immunoprecipitated, they were analyzed in a PAK kinase assay, as described by Tang, et. al., Mol. Cell Biol 17: 4454-4464 (1997); He, et. al., Cancer J. 7:191-202 (2001), He, et. al., Cancer J 6:243-248 (2000); Obemeier, et. al., EMBO J 17:4328-4339 (1998), all of which are incorporated by reference.

FAK-ETK interaction = target: T4, FAK-ETK interaction (Mus musculus, UniProt P97504); test: FAK association with ETK in RAS cells; format: cell-based
T4 construct: blotted, using either anti-phospo Tyr, anti-ETK, or anti-PAK1 antibodies; endogenous in cells; host or cells: RAS cells (v-Ha-RAS transformed NIH 3T3 fibroblasts)
T4 sequence (P97504 1-651): T1 sequence (P97504 1-651)
Excerpt: as §2

ErbB2 = ErbB2 (Homo sapiens, UniProt P04626); details: cited from earlier work
BTK = BTK (Homo sapiens, UniProt Q06187); test: In vitro kinase assay, TEC family member BTK; format: biochemical; details: concentration as high as 10 μM
RAS induced sarcomas = details: nude mouse model; cited from earlier work
RAS cells = test: Anchorage dependent growth, follow up experiments; format: cell-based; details: as much as 1 μM
Excerpt: The experiments which follow were designed to address this question.

FLK-1 = details: cited from earlier work
ITK = target: T5, ITK (Homo sapiens, UniProt Q08881); test: In vitro kinase assay, TEC family member ITK; format: biochemical; details: concentration as high as 10 μM
T5 sequence (Q08881 1-620): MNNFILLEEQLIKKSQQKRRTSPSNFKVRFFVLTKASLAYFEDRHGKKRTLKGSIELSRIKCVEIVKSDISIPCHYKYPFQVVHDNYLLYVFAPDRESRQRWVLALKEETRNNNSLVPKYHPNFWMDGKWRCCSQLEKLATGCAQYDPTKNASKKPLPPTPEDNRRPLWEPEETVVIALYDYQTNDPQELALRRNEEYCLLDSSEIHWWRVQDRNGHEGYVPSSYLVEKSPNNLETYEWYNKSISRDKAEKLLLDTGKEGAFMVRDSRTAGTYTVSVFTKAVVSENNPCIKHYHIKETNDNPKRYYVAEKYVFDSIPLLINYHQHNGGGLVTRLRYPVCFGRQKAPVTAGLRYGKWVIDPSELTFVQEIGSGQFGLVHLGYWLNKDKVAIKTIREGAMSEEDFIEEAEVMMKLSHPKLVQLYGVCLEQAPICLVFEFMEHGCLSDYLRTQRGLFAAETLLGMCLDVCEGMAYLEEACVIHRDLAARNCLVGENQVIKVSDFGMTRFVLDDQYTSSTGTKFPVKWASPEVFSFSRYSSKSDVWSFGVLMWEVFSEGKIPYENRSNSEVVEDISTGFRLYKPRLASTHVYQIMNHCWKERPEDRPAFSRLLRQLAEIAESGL

ETK [4] = target: T1, ETK; test: In vitro kinase assay with ETK immunoprecipitated from RAS cells; format: biochemical; design: RAS cells were again lysed and immunoprecipitated with an anti-ETK antibody; endogenous in cells; host or cells: RAS cells (v-Ha-RAS transformed NIH 3T3 fibroblasts)
Procedure: These experiments were designed to determined how AG879 inhibited ETK activity, i.e., was the inhibition direct, or indirect? To test this, RAS cells were again lysed and immunoprecipitated with an anti-ETK antibody, as described supra. Following this, the immunoprecipitates were used in an in vitro kinase assay, using no, or varying concentrations, of AG879 (0.001-10 μM), as described supra. Two, independent experiments, were carried out.

TEC = target: T6, TEC (Homo sapiens, UniProt P42680); test: In vitro kinase assay, TEC family member TEC; format: biochemical; details: concentration as high as 10 μM
T6 sequence (P42680 1-631): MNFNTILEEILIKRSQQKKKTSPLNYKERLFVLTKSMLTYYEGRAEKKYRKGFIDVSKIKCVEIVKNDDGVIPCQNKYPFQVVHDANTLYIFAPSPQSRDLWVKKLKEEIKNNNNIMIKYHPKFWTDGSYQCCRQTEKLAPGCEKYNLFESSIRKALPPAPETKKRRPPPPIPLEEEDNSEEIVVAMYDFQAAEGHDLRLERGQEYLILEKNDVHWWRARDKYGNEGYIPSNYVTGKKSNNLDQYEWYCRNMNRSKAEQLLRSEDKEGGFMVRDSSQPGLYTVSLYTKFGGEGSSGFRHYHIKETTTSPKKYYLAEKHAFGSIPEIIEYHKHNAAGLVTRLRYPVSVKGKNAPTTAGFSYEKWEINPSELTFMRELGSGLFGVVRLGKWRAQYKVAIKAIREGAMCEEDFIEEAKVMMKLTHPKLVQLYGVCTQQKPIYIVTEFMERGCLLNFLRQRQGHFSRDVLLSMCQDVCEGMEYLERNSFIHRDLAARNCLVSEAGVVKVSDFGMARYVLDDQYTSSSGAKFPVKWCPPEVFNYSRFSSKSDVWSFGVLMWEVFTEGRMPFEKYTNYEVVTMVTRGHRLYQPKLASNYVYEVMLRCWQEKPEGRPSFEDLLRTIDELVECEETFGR

FAK-PAK1 interaction = FAK-PAK1 interaction in RAS cells; format: cell-based; details: 10 nM
Excerpt: as §2

[5] = test system: RAS cells (NIH 3T3 fibroblasts transformed with v-Ha-RAS); test: Colony formation of RAS cells in 0.35% top agar, 3 weeks; format: cell-based; details: colonies containing more than 100 cells, average of two experiments, read-out: IC50 for large colony formation
Excerpt: After three weeks, the colonies were stained, and counted, using standard methods. The control used was non-treated cells, plated into the same type of medium.

[6] = test system: RAS transformation of cells; details: in vitro and in vivo (b6); malignant transformation of cells (b7); cited from earlier work
PAK1 [7] = details: cited from earlier work

T3 sequence (P34152 whole entry): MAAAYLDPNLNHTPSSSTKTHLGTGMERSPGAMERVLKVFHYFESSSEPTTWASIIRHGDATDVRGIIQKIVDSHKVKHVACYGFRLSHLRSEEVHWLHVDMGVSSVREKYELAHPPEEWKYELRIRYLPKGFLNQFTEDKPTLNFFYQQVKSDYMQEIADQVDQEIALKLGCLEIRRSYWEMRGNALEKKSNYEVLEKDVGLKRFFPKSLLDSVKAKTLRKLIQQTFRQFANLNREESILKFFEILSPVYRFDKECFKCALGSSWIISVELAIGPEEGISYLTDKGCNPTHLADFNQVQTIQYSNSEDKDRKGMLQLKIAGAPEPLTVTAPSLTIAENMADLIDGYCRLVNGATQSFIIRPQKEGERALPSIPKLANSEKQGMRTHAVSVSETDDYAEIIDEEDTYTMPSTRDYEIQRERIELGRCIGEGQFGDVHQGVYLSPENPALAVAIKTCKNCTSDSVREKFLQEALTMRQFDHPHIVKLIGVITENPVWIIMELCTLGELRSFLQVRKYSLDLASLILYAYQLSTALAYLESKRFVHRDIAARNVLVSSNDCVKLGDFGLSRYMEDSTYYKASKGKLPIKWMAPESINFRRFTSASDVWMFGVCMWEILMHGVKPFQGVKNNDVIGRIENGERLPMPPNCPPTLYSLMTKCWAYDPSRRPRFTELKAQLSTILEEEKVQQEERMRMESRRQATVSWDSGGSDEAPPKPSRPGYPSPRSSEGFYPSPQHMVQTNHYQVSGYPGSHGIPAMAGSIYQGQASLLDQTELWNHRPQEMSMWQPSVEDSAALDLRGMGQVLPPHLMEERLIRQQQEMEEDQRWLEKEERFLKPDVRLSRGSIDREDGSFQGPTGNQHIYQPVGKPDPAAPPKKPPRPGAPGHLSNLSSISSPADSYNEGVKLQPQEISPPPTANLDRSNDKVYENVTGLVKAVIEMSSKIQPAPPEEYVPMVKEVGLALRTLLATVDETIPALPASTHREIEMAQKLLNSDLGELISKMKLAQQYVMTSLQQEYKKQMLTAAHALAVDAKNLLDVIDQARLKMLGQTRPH
GST-PAK1, sequence (Q13153 whole entry, the tested form may be a part): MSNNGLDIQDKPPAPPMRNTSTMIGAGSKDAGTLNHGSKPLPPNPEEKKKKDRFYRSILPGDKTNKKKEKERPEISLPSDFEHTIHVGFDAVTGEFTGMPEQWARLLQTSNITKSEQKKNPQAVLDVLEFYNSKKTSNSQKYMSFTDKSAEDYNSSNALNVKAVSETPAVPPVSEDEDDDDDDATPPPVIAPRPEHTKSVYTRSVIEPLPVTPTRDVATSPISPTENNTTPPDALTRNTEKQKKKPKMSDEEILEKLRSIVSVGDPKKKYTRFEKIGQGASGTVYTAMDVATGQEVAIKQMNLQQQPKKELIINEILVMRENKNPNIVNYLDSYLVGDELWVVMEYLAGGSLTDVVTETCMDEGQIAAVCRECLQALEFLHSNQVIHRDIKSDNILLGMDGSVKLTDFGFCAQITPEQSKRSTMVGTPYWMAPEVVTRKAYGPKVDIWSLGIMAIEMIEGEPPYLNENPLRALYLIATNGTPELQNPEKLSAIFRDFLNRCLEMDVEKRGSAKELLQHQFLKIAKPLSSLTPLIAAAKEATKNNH
BTK, sequence (Q06187 whole entry, species assumed): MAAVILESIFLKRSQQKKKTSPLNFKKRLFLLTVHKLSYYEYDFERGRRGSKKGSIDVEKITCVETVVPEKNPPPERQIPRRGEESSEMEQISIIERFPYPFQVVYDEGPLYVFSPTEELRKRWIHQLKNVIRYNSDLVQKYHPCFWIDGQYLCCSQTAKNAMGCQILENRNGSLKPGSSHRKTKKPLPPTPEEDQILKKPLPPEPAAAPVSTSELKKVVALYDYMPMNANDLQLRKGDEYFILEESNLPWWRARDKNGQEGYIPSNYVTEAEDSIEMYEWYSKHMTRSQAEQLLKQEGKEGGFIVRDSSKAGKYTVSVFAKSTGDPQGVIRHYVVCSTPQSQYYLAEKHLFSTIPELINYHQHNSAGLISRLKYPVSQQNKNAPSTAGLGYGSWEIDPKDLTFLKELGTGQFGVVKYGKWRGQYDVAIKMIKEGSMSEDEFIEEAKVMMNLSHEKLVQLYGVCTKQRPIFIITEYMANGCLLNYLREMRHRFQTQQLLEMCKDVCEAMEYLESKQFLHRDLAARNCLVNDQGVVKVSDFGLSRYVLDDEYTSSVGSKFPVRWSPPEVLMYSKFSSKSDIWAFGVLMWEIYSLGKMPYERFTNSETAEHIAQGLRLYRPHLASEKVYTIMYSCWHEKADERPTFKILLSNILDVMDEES

AG879
tyrosine phosphorylation of ETK (ETK [1]; 10 nM): inhibited | level of the ETK protein (ETK [1]): did not affect | inhibition of kinase properties of GST-PAK1 (GST-PAK1): did not inhibit | ETK-PAK1 association (ETK-PAK1 association): suppress | Tyr phosphorylation of PAK1 (PAK1 [2]): reduced | Tyr phosphorylation of FAK (FAK; 10 nM): not at the lower concentration | Tyr phosphorylation of FAK (FAK; 100 nM): suppressed | PAK1 kinase activity (PAK1 [3]): blocked quite strongly | FAK association with ETK (FAK-ETK interaction; 10 nM): not at the lower concentration | FAK association with ETK (FAK-ETK interaction; 100 nM): suppressed | ErbB2 inhibition (ErbB2): inhibitor | inhibitory effect on BTK (BTK): no inhibitory effect | growth of RAS induced sarcomas in vivo (RAS induced sarcomas): suppressed | effect on anchorage dependent growth (RAS cells): did not effect | FLK-1 inhibition (FLK-1): inhibitor | inhibitory effect on ITK (ITK): no inhibitory effect | Tyr phosphorylation of ETK (ETK [4]; 10 nM, ETK immunoprecipitate): inhibited | Tyr phosphorylation of PAK1 by ETK (ETK [4]; 10 nM, ETK immunoprecipitate): inhibited | IC50 (ETK [4]; AG879 0.001-10 μM, two independent experiments): ~0.005 µM | inhibitory effect on TEC (TEC): no inhibitory effect | FAK-PAK1 interaction (FAK-PAK1 interaction): inhibit | IC50 [5]: ~0.01 µM

COc1cc(/C=C(\C#N)C(N)=O)cc(CSc2nc3ccccc3s2)c1O [AG825]
RAS induced transformation [6]: block | RAS induced PAK1 activation (PAK1 [7]): block | IC50 (PAK1 [7]; read-out: IC50, block of RAS induced activation of PAK1 and malignant transformation): ~0.35 µM

Cc1ccc(-c2nn(C(C)(C)C)c3ncnc(N)c23)cc1 [PP1]
RAS induced transformation [6]: block | RAS induced PAK1 activation (PAK1 [7]): block

COc1cc2ncnc(Nc3cccc(Cl)c3)c2cc1OC [AG1478]
RAS induced transformation [6]: block | RAS induced PAK1 activation (PAK1 [7]): block
